Source: ChEMBL document CHEMBL1201862, “PubChem BioAssay data set” (2004)
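Grown in 96-well plates, cells were treated for 48 hours with each compound at five concentrations. Insufficient inhibition: endpoint recorded as highest concentration tested. Abbreviation: GI50, concentration required for 50% inhibition of growth.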 Activity calls are given as the source filed them. No stated cut-off is given here; in the data, active = GI50 up to about 1.1 µM and inactive = higher.

Assays:
Experiment in all cases: DTP human tumour cell line panel, 48 h
DLD-1 = test system: DLD-1
DMS-114 = test system: DMS-114
DMS-273 = test system: DMS-273
HOP-18 = test system: HOP-18
LXFL 529 = test system: LXFL 529
M19-MEL = test system: M19-MEL
RXF 631 = test system: RXF 631
XF498 = test system: XF498
BT-549 = test system: BT-549

## C=CC1(C)CC(=O)C2(O)C(C)(O1)C(OC(C)=O)C(O)C1C(C)(C)CCC(O)C12C (stereo not drawn)
DLD-1
  GI50: > 150 µM (inactive)
DMS-114
  GI50: 52.8 µM (inactive)
DMS-273
  GI50: > 139 µM (inactive)
HOP-18
  GI50: 41.3 µM (inactive)
LXFL 529
  GI50: > 100 µM (inactive)
M19-MEL
  GI50: 104 µM (inactive)
RXF 631
  GI50: > 100 µM (inactive)
XF498
  GI50: 61.8 µM (inactive)

## CCCCCCCCCCCCCC(=O)NO
BT-549
  GI50: 1.16 µM (inactive)
DLD-1
  GI50: 13.2 µM (inactive)
DMS-114
  GI50: 3.6 µM (inactive)
DMS-273
  GI50: 14.3 µM (inactive)
HOP-18
  GI50: 34.4 µM (inactive)
LXFL 529
  GI50: 5.14 µM (inactive)
M19-MEL
  GI50: 24 µM (inactive)
RXF 631
  GI50: 10.9 µM (inactive)
XF498
  GI50: 24.4 µM (inactive)

## Cc1cnc2c(c1)C(=O)C1=C(OC(C)(C)CC1O)C2=O (stereo not drawn)
DLD-1
  GI50: 16 µM (inactive)
DMS-114
  GI50: 10.4 µM (inactive)
DMS-273
  GI50: 11.9 µM (inactive)
HOP-18
  GI50: 15.8 µM (inactive)
LXFL 529
  GI50: 16.2 µM (inactive)
M19-MEL
  GI50: 3.1 µM (inactive)
RXF 631
  GI50: > 10 µM (inactive)
XF498
  GI50: 19.5 µM (inactive)

## CCC(=O)OC[n+]1ccc2c(C)c3[nH]c4ccccc4c3c(C)c2c1
DLD-1
  GI50: 0.229 µM (active)
DMS-114
  GI50: 0.608 µM (active)
HOP-18
  GI50: < 0.01 µM (active)
LXFL 529
  GI50: 0.413 µM (active)
M19-MEL
  GI50: 0.681 µM (active)
RXF 631
  GI50: 0.504 µM (active)
XF498
  GI50: 1.88 µM (inactive)

## C=CCNC1=NC(=O)C(CC(=O)Nc2ccc([N+](=O)[O-])cc2[N+](=O)[O-])S1 (stereo not drawn)
DLD-1
  GI50: > 100 µM (inactive)
DMS-114
  GI50: 66.5 µM (inactive)
DMS-273
  GI50: > 100 µM (inactive)
HOP-18
  GI50: > 100 µM (inactive)
LXFL 529
  GI50: > 100 µM (inactive)
M19-MEL
  GI50: > 100 µM (inactive)
RXF 631
  GI50: > 100 µM (inactive)
XF498
  GI50: > 100 µM (inactive)

## CSc1ccc(C2OC(=O)c3ccccc32)c2ccccc12 (stereo not drawn)
DLD-1
  GI50: 86.5 µM (inactive)
DMS-114
  GI50: 74.3 µM (inactive)
HOP-18
  GI50: 40.6 µM (inactive)
LXFL 529
  GI50: 58.3 µM (inactive)
M19-MEL
  GI50: > 100 µM (inactive)
RXF 631
  GI50: > 100 µM (inactive)
XF498
  GI50: 61.8 µM (inactive)

## Cc1ccccc1-c1c(N)nc(N)nc1C(=O)Nc1nccs1
DLD-1
  GI50: > 100 µM (inactive)
DMS-114
  GI50: > 100 µM (inactive)
DMS-273
  GI50: > 100 µM (inactive)
HOP-18
  GI50: > 100 µM (inactive)
LXFL 529
  GI50: > 100 µM (inactive)
M19-MEL
  GI50: > 100 µM (inactive)
RXF 631
  GI50: > 100 µM (inactive)
XF498
  GI50: > 100 µM (inactive)

## COC(=O)C(C(=O)C(=O)Nc1cccc(C)c1)C1=NC(N)SS1 (stereo not drawn)
DLD-1
  GI50: > 100 µM (inactive)
DMS-114
  GI50: > 100 µM (inactive)
DMS-273
  GI50: > 100 µM (inactive)
HOP-18
  GI50: > 100 µM (inactive)
LXFL 529
  GI50: > 100 µM (inactive)
M19-MEL
  GI50: > 100 µM (inactive)
RXF 631
  GI50: > 100 µM (inactive)
XF498
  GI50: > 100 µM (inactive)

## COC(C(=O)NCCCCNC(=O)C(OC)c1ccccc1)c1ccccc1 (stereo not drawn)
DLD-1
  GI50: > 100 µM (inactive)
DMS-114
  GI50: > 100 µM (inactive)
DMS-273
  GI50: > 100 µM (inactive)
HOP-18
  GI50: > 100 µM (inactive)
LXFL 529
  GI50: > 100 µM (inactive)
M19-MEL
  GI50: > 100 µM (inactive)
RXF 631
  GI50: > 100 µM (inactive)
XF498
  GI50: > 100 µM (inactive)

## CC12CCC(CC1)C(C)(C)O2 [EUCALYPTOL]
DLD-1
  GI50: 25.9 µM (inactive)
DMS-114
  GI50: 24.4 µM (inactive)
DMS-273
  GI50: 3.56 µM (inactive)
LXFL 529
  GI50: > 100 µM (inactive)
M19-MEL
  GI50: 11.5 µM (inactive)
RXF 631
  GI50: > 100 µM (inactive)
XF498
  GI50: 2.16 µM (inactive)
